# Article PMC7496508, “Modular Medical Imaging Agents Based on Azide–Alkyne Huisgen Cycloadditions: Synthesis and Pre‐Clinical Evaluation of ^18F‐Labeled PSMA‐Tracers for Prostate Cancer Imaging” (Chemistry (Weinheim an Der Bergstrasse, Germany), 2020)
# Several values for one entry are separate records, joined by “and”; a condition that tells them apart may be missing. Equal entries are not always repeated.
# Tests used:
# PC3 (PSMA-) xenografts = experiment: PET image quantification of organ distribution (SUVmeanBW), PC3 xenograft mice; format: in vivo, Balb/c nude mice
# Description: (§1) The in vivo imaging potential of [^18F]PSMA‐MIC01 was evaluated using a murine animal model (see Supporting Information for experimental details).65 This was performed in a procedure that involved the study of the tumor uptake, binding specificity and comparison to [^68Ga]PSMA‐11. Tumor uptake of [^18F]PSMA‐MIC01 was assessed by performing a 90 min dynamic PET scan.
# (§2) The animal experiments were all performed according to the ethical guidelines and approved by the local animal welfare committee of the University of Groningen (IvD number 15166-06-001. All animals were caged separately in individually ventilated cages.
# (§3) 7-12 week old immune deficient Balb/c nude mice were inoculated with 200 µL of a 1:1 suspension of medium containing approximately 4 x10^6 LNCaP cells (PSMA positive cells) or 5 x 10^6 PC3 cells (PSMA-negative cells) in RPMI-1640, and Matrigel Basement Membrane Matrix High concentration. The cells were subcutaneously inoculated on the right shoulder.
# (§4) After 3 to 5 weeks for LNCaP-xenografts, 2-3 weeks for PC3-xenografts or when a tumor size of 1cm3 was reached, the animals were transported to the PET imaging facility. For the […]
# (§5) prepared and 100 µL were injected via penile vein injection 30 min prior to the tracer injection. Animals were anesthetized at 5 % isoflurane and maintained under 2 % isoflurane enriched with O2. The dynamic PET scan was started within 5 min after tracer injection with an acquisition time of 90 min. The static scan was performed 60 min after tracer injection with an acquisition time of 30 min. […]
# (§6) In order to check for the significant differences, we also checked for the Cohen’s d, a measurement to determine the effect size. It is calculated on the following formula:
# (§7) Cohen′sD = Mean1− Mean2 . […]
# LNCaP (PSMA+) xenografts [1] = experiment: PET image quantification of organ distribution (SUVmeanBW), LNCaP xenograft mice; format: in vivo, Balb/c nude mice
# Description: as §1, §2, §3, §4, §5, §6, §7
# LNCaP (PSMA+) xenografts [2] = experiment: ex vivo organ distribution, LNCaP xenograft mice; format: in vivo, Balb/c nude mice
# Description: All groups were evaluated by visual assessment of the PET image and the percentage injected dose per gram (%ID g^−1).
# as §2, §3, §4
# prepared and 100 µL were injected via penile vein injection 30 min prior to the tracer injection. Animals were anesthetized at 5 % isoflurane and maintained under 2 % isoflurane enriched with O2. The dynamic PET scan was started within 5 min after tracer injection with an acquisition time of 90 min. The static scan was performed 60 min after tracer injection with an acquisition time of 30 min.
# 7.2. Organ distribution and Metabolite analysis.
# After sacrificing the animals, the organs were dissected and measured in a γ-counter. The obtained CPM’s were normalized to %ID/g (Table shown in main text). […]
# as §6, §7
# [3] = distribution coefficient logD, n-octanol/PBS; format: physicochemical
# Description: page 19: Figure S3: HPLC purification of [18F]PSMA-MIC02 (A) and after 4 h (B). 5. Distribution coefficient LogD. […] cup. 100 µL of the formulated final solution of [18F]PSMA-MIC01 or [18F]PSMA-MIC02 was added and vortexed for 1 minute and centrifuged for 5 min at […]. The different layers were separated and 100 µL of each layer were measured on a γ-counter. Based on the counts per minute (CPM) of each fraction, the partition coefficient was measured with the following formula: log(CPMoctanol/CPMPBS). The obtained data are as followed. Table S2. Counts per minute (CPM) of the 3 indidicually measured triplicates of [18F]PSMA-MIC01 of n- octanol and PBS. Octanol (CPM) PBS (CPM) BLK (CPM) LogD Mean SD […] No 1.2 2823.43 2715328.33 93.59 -2.99 […] No 2.3 394.49 640463.84 93.59 -3.21 […] No 3.2 3690.69 2357291.58 50.84 -2.81 No 3.3 5848.38 3956671.48 52.31 -2.83 -3.01 0.22 18 (1 picture or pasted object on this page, not shown here)
# [4] = LNCaP-blocked (PSMA+), 2-PMPA prior to tracer
# [5] = LNCaP (PSMA+) xenograft blocked with 2-PMPA 30 min prior to tracer
# [6] = LNCaP (PSMA+) xenograft, dissected after PET scan
smiles,measurement,setting,value
O=C(O)CC[C@H](NC(=O)N[C@@H](CCCCNC(=O)c1ccc(-c2cn(CCOCCOCC[18F])nn2)cc1)C(=O)O)C(=O)O [[^18F]PSMA‐MIC01],SUVmeanBW Bladder,PC3 (PSMA-) xenografts,3.9 ± 0.4
same,SUVmeanBW Brain,PC3 (PSMA-) xenografts,0.2 ± 0.1
same,SUVmeanBW Heart,PC3 (PSMA-) xenografts,0.7 ± 0.2
same,SUVmeanBW Kidney,PC3 (PSMA-) xenografts,5.1 ± 1.9
same,SUVmeanBW Liver,PC3 (PSMA-) xenografts,1.5 ± 0.5
same,SUVmeanBW Muscle,PC3 (PSMA-) xenografts,0.3 ± 0.1
same,SUVmeanBW Tumor,PC3 (PSMA-) xenografts,0.4 ± 0.2
same,SUVmeanBW Bladder,LNCaP (PSMA+) xenografts [1]; LNCaP (PSMA+) xenograft,10.2 ± 6.7
same,SUVmeanBW Brain,LNCaP (PSMA+) xenografts [1]; LNCaP (PSMA+) xenograft,0.2 ± 0.1
same,SUVmeanBW Heart,LNCaP (PSMA+) xenografts [1]; LNCaP (PSMA+) xenograft,0.4 ± 0.2
same,SUVmeanBW Kidney,LNCaP (PSMA+) xenografts [1]; LNCaP (PSMA+) xenograft,4.4 ± 1.4
same,SUVmeanBW Liver,LNCaP (PSMA+) xenografts [1]; LNCaP (PSMA+) xenograft,0.8 ± 0.2
same,SUVmeanBW Muscle,LNCaP (PSMA+) xenografts [1]; LNCaP (PSMA+) xenograft,0.2 ± 0.1
same,SUVmeanBW Tumor,LNCaP (PSMA+) xenografts [1]; LNCaP (PSMA+) xenograft,0.6 ± 0.4
same,SUVmeanBW Bladder,LNCaP (PSMA+) xenografts [1]; [4],20.7 ± 12.4
same,SUVmeanBW Brain,LNCaP (PSMA+) xenografts [1]; [4],0.1 ± 0.0
same,SUVmeanBW Heart,LNCaP (PSMA+) xenografts [1]; [4],0.4 ± 0.1
same,SUVmeanBW Kidney,LNCaP (PSMA+) xenografts [1]; [4],2.6 ± 1.7
same,SUVmeanBW Liver,LNCaP (PSMA+) xenografts [1]; [4],0.8 ± 0.4
same,SUVmeanBW Muscle,LNCaP (PSMA+) xenografts [1]; [4],0.2 ± 0.1
same,SUVmeanBW Tumor,LNCaP (PSMA+) xenografts [1]; [4],0.3 ± 0.1
same,ex vivo uptake bone,LNCaP (PSMA+) xenografts [2]; [5],0.3±0.1 %ID g^−1
same,ex vivo uptake brain,LNCaP (PSMA+) xenografts [2]; [5],0.1±0.0 %ID g^−1
same,ex vivo uptake heart,LNCaP (PSMA+) xenografts [2]; [5],0.7±0.5 %ID g^−1
same,ex vivo uptake kidney,LNCaP (PSMA+) xenografts [2]; [5],28.5±20.7 %ID g^−1
same,ex vivo uptake large intestine,LNCaP (PSMA+) xenografts [2]; [5],0.9±0.3 %ID g^−1
same,ex vivo uptake liver,LNCaP (PSMA+) xenografts [2]; [5],5.7±1.4 %ID g^−1
same,ex vivo uptake lungs,LNCaP (PSMA+) xenografts [2]; [5],1.1±0.3 %ID g^−1
same,ex vivo uptake muscles,LNCaP (PSMA+) xenografts [2]; [5],0.3±0.1 %ID g^−1
same,ex vivo uptake pancreas,LNCaP (PSMA+) xenografts [2]; [5],0.5±0.2 %ID g^−1
same,ex vivo uptake plasma,LNCaP (PSMA+) xenografts [2]; [5],3.8±1.3 %ID g^−1
same,ex vivo uptake salivary glands,LNCaP (PSMA+) xenografts [2]; [5],1.0±0.8 %ID g^−1
same,ex vivo uptake small intestine,LNCaP (PSMA+) xenografts [2]; [5],1.2±1.5 %ID g^−1
same,ex vivo uptake spleen,LNCaP (PSMA+) xenografts [2]; [5],1.0±0.2 %ID g^−1
same,ex vivo uptake stomach,LNCaP (PSMA+) xenografts [2]; [5],7.3±16.4 %ID g^−1
same,ex vivo uptake tumor,LNCaP (PSMA+) xenografts [2]; [5],2.8±0.8 %ID g^−1
same,ex vivo uptake urine,LNCaP (PSMA+) xenografts [2]; [5],644±627 %ID g^−1
same,ex vivo uptake whole blood,LNCaP (PSMA+) xenografts [2]; [5],1.8±0.6 %ID g^−1
same,ex vivo uptake bone,LNCaP (PSMA+) xenografts [2]; [6],0.2±0.1 %ID g^−1
same,ex vivo uptake brain,LNCaP (PSMA+) xenografts [2]; [6],0.1±0.0 %ID g^−1
same,ex vivo uptake heart,LNCaP (PSMA+) xenografts [2]; [6],0.6±0.4 %ID g^−1
same,ex vivo uptake kidney,LNCaP (PSMA+) xenografts [2]; [6],42.0±9.0 %ID g^−1
same,ex vivo uptake large intestine,LNCaP (PSMA+) xenografts [2]; [6],1.4±1.5 %ID g^−1
same,ex vivo uptake liver,LNCaP (PSMA+) xenografts [2]; [6],5.6±1.3 %ID g^−1
same,ex vivo uptake lungs,LNCaP (PSMA+) xenografts [2]; [6],1.3±0.5 %ID g^−1
same,ex vivo uptake muscles,LNCaP (PSMA+) xenografts [2]; [6],0.5±0.2 %ID g^−1
same,ex vivo uptake pancreas,LNCaP (PSMA+) xenografts [2]; [6],0.8±0.7 %ID g^−1
same,ex vivo uptake plasma,LNCaP (PSMA+) xenografts [2]; [6],0.9±5.2 %ID g^−1
same,ex vivo uptake salivary glands,LNCaP (PSMA+) xenografts [2]; [6],0.5±0.3 %ID g^−1
same,ex vivo uptake small intestine,LNCaP (PSMA+) xenografts [2]; [6],1.6±2.1 %ID g^−1
same,ex vivo uptake spleen,LNCaP (PSMA+) xenografts [2]; [6],5.8±3.4 %ID g^−1
same,ex vivo uptake stomach,LNCaP (PSMA+) xenografts [2]; [6],0.6±0.2 %ID g^−1
same,ex vivo uptake tumor,LNCaP (PSMA+) xenografts [2]; [6],11.8±4.2 %ID g^−1 and 11.7±4.2 %ID g^−1
same,ex vivo uptake urine,LNCaP (PSMA+) xenografts [2]; [6],314±420 %ID g^−1
same,ex vivo uptake whole blood,LNCaP (PSMA+) xenografts [2]; [6],1.6±1.3 %ID g^−1
same,"LogD, individual measurements","[3]; n-octanol/PBS pH 7.4, single measurements",-3.03 and -2.99 and -3.02 and -3.27 and -3.20 and -3.21 and -2.72 and -2.81 and -2.83
same,logD,"[3]; n-octanol/PBS, pH 7.4, n-octanol/PBS pH 7.4, overall mean",-3.01 ± 0.22
